In patent publication US10472324B2, “2-cyano-3-cyclopropyl-3-hydroxy-N-aryl-thioacrylamide derivatives” (Algiax Pharmaceuticals GmbH, priority 2014, dated 2019):

What was measured:
[1] = target: GABA gated Cl-channel (GABA.A receptor complex); assay: GABAA receptor binding assay ([35S]TBPS radioligand); conditions: 3 nM [35S]TBPS, rat cerebral cortex membrane homogenates, 120 min at 22° C.
Procedure: GABAA Receptor Binding Assay:
The affinity of the test compounds for the GABA gated Cl-channel (GABA.A receptor complex) in the rat cerebral cortex was determined in a radioligand binding assay (Lewin et al,. 1989). Membrane homogenates of cerebral cortex are incubated for 120 min at 22° C. with 3 nM [35S]TBPS (-t-butylbicyclophosphoorothionate) in the presence and absence of the test compound.
Following incubation, the samples are filtered rapidly under vacuum through glass fiber filters and rinsed several times with ice-cold buffer using a 96-sample cell harvester. The filters are dried then counted for radioactivity in a scintilliation counter using a scintillation cocktail (Microscint 0, Packard). Each compound was tested at several concentrations to calculate the IC50 values of the affinity to the GABA.A receptor complex in cerebral cortex of rats.

human GABAA α3β3γ2 = human GABAA α3β3γ2 (Homo sapiens (Human), UniProt P18507+P28472+P34903); assay: Patch clamp electrophysiology, positive modulation, HEK293 cells expressing GABAA α3β3γ2; assay type: cell-based; conditions: GABA EC20 current = 100%
Chain of human GABAA α3β3γ2 (P34903 29-492): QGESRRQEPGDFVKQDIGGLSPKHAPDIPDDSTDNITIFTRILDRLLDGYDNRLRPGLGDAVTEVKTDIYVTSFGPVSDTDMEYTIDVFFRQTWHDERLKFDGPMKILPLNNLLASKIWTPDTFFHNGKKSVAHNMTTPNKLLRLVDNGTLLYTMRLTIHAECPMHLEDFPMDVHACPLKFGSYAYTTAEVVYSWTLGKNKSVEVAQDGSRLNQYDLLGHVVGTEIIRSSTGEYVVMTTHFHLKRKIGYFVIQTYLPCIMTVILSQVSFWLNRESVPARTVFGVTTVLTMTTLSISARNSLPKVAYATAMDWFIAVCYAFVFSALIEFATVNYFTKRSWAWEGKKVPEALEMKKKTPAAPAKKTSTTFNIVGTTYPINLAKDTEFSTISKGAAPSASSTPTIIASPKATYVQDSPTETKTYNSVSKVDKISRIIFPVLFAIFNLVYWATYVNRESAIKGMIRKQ
Chain of human GABAA α3β3γ2 (P28472 26-473): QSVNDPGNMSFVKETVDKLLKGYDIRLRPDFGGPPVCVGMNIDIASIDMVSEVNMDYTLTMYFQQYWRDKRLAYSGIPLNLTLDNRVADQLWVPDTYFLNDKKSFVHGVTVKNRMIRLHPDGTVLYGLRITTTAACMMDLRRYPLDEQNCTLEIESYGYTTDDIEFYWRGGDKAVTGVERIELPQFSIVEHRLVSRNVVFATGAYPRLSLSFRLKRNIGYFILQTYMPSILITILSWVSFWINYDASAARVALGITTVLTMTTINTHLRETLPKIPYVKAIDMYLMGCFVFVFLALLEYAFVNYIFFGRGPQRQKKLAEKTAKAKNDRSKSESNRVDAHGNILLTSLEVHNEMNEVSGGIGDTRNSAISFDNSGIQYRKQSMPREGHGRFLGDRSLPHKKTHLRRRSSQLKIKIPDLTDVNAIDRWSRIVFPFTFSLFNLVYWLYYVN
Chain of human GABAA α3β3γ2 (P18507 40-475): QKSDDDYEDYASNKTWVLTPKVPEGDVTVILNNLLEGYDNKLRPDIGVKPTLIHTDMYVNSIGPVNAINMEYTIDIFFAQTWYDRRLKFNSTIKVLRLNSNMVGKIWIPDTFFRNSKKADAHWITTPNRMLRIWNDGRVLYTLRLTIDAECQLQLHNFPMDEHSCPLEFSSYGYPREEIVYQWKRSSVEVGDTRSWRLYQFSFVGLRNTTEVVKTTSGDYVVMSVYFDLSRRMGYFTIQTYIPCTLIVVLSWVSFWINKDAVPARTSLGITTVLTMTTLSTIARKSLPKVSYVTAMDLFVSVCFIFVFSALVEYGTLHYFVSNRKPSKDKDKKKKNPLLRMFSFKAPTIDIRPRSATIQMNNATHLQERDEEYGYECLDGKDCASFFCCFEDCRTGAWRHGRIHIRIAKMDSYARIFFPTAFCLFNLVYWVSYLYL
Text: (§1) Electrophysiological assays on different subunit combinations of the human GABAA receptor complex.
(§2) The functional positive modulation activity of the test compounds were investigated by using patch clamp techniques on HEK293 cells stably expressing different subunit combinations of the human GABAA receptor complex. In brief, the peak inward currents in response to the GABA (natural ligand of the GABAA receptors) additions in the presence of increasing concentrations of test compound were measured. To calculate the positive modulation activity the mean effect of GABA (EC20 concentration) was set to 100%.
(§3) A value of 100 percent equates to the compound having an effect equivalent to the addition of the EC20 concentration of GABA.

human GABAA α2β3γ2 = human GABAA α2β3γ2 (Homo sapiens (Human), UniProt P18507+P28472+P47869); assay: Patch clamp electrophysiology, positive modulation, HEK293 cells expressing GABAA α2β3γ2; assay type: cell-based; conditions: GABA EC20 current = 100%
Chain of human GABAA α2β3γ2 (P47869 29-451): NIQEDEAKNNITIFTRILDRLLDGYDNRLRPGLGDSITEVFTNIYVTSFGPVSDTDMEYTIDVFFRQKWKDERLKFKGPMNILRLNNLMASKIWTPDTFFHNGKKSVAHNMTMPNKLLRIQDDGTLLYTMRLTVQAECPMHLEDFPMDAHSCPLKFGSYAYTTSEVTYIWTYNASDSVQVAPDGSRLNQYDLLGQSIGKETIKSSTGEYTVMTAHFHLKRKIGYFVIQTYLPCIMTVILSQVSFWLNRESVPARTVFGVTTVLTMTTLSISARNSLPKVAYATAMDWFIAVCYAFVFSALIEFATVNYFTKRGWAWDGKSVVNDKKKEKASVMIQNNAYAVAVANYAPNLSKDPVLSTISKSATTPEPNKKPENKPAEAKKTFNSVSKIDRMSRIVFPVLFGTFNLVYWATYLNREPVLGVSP
Chain of human GABAA α2β3γ2 (P28472 26-473): as the sequence (P28472 26-473) above
Chain of human GABAA α2β3γ2 (P18507 40-475): as the sequence (P18507 40-475) above
Text: as §1, §2, §3

human GABAA α1β3γ2 = human GABAA α1β3γ2 (Homo sapiens (Human), UniProt P14867+P18507+P28472); assay: Patch clamp electrophysiology, positive modulation, HEK293 cells expressing GABAA α1β3γ2; assay type: cell-based; conditions: GABA EC20 current = 100%
Chain of human GABAA α1β3γ2 (P14867 28-456): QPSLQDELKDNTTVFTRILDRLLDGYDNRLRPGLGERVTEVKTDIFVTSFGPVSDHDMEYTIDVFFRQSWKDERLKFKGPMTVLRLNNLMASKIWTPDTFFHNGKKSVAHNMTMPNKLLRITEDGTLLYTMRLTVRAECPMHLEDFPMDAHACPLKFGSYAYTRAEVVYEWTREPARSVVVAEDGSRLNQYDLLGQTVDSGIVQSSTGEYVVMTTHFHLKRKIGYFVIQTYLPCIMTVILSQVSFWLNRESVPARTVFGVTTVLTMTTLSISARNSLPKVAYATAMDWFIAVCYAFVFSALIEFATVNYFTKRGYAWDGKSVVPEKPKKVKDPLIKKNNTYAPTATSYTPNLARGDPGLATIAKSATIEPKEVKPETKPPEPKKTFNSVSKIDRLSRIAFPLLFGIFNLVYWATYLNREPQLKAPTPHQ
Chain of human GABAA α1β3γ2 (P28472 26-473): as the sequence (P28472 26-473) above
Chain of human GABAA α1β3γ2 (P18507 40-475): as the sequence (P18507 40-475) above
Text: as §1, §2, §3

[2] = test system: neuropathic pain induced by spinal nerve ligation (SNL) injury; assay: SNL model or Chung model for peripheral neuropathic pain, mechanical allodynia (von Frey); assay type: in vivo, rat; conditions: for reversal of neuropathic pain induced by spinal nerve ligation: 10 mg/kg oral gavage for 5 days, rat; for 50% paw withdrawal threshold: cut-off 60 g
Procedure: SNL model or Chung model as in vivo model for peripheral neuropathic pain
Surgery was performed according to the method of Chung et al., 2004 (see List of References). In brief, animals are anesthetized and the hair on their backs is trimmed. Under sterile conditions, a longitudinal incision is made at the lower lumbar and sacral levels, exposing the paraspinal muscles on the left. Connective tissues and muscles are removed by a small scraper, after which bony structures become visible. The L6 vertebra left transverse process of animal was first removed to expose the L4 and L5 spinal nerves. The L5 spinal nerve was then carefully isolated and tightly ligated with 6-0 silk thread. Surgery was always performed on the left leg (Ipsilateral paw), the right leg (contralateral paw) remained intact and served as a control. On completion of the operation, hemostasis is confirmed and the muscles are sutured in layers using silk thread and the skin is closed with metal clips, anesthesia is then discontinued. Axonal degeneration occurs, with all types of axons being approximately equally affected. Pronounced mechanical allodynia follows, accompanied by spontaneous pain behaviors, which lasts for several weeks without recovery. Mechanical allodynia is typically assessed beginning 1-2 weeks post-surgery.
(§4) Mechanical allodynia thresholds were determined according to the methods described by Chaplan and colleagues (Chaplan et al., 1994). At the designated post-operative time points the injured rats were placed in an elevated clear-plastic, wire mesh-bottomed cage. After a 10- to 15-min acclimation period, eight von Frey filaments (Stoelting, Wood Dale, Ill.) with bending forces ranging from 2 to 60 g were used to determine the 50% mechanical threshold for paw withdrawal using the up-and-down method.
After spinal nerve ligation (SNL) injury, individual rats were randomly assigned into a treatment group. The following groups were used:
Group 2: SNL+ Example 1 (10 mg/kg) in vehicle by oral gavage for 5 days from DPO7 (pre-treat) till DPO12.
Group 3: SNL+ Example 2 (10 mg/kg) in vehicle by oral gavage for 5 days from DPO7 (pre-treat) till DPO12.
Group 2: SNL+ Example 3 (10 mg/kg) in vehicle by oral gavage for 5 days from DPO14 till DPO19.
Group 3: SNL+ Example 4 (10 mg/kg) in vehicle by oral gavage for 5 days from DPO14 till DPO19.
Group 4: SNL+ Example 6 (10 mg/kg) in vehicle by oral gavage for 5 days from DPO14 till DPO19.

[3] = test system: acute pain induced by capsaicin injection in the hindpaw; assay: Capsaicin induced pain model for acute pain, mechanical allodynia (von Frey); assay type: in vivo, rat; conditions: for reversal of acute pain induced by capsaicin injection: 1 or 10 mg/kg oral gavage, rat hindpaw
Procedure: as §4
Capsaicin induced pain as in vivo model for acute pain
Rats were gently restrained and capsaicin (10 μg in 10 μI of 10% Tween80) in saline was injected into the plantar surface of the hindpaw using a 0.3 ml insulin syringe with a 29-gauge needle (Terumo Europe, Belgium).
After injection of Capsaicin, individual rats were randomly assigned into a treatment group. The following groups were used:
Group 2: Capsaicin injection+ Example 1 (1 mg/kg) in vehicle by oral gavage about 40 minutes after injection.
Group 3: Capsaicin injection+ Example 3 (1 mg/kg) in vehicle by oral gavage about 40 minutes after injection.
Group 2: Capsaicin injection+ Example 2 (10 mg/kg) in vehicle by oral gavage about 40 minutes after injection.
Group 3: Capsaicin injection+ Example 6 (10 mg/kg) in vehicle by oral gavage about 40 minutes after injection.

[4] = Experiment 2, 10 mg/kg oral gavage 5 days DPO14-DPO19, at DPO21
[5] = Experiment 2, 10 mg/kg oral gavage about 40 minutes after capsaicin, 150 minutes after capsaicin injection
[6] = Experiment 2, 10 mg/kg oral gavage about 40 minutes after capsaicin, 210 minutes after capsaicin injection
[7] = Experiment 2, 10 mg/kg oral gavage 5 days DPO14-DPO19, after DPO21 till end of experiment at DPO35
[8] = Experiment 1, 1 mg/kg oral gavage about 40 minutes after capsaicin, 150 minutes after capsaicin injection
[9] = Experiment 1, 1 mg/kg oral gavage about 40 minutes after capsaicin, 210 minutes after capsaicin injection
[10] = Experiment 1, 10 mg/kg oral gavage 5 days DPO7-DPO12, at DPO35 (end of experiment)

SMILES	IC50 [1]	GABAA α3β3γ2 normalized percent current (human GABAA α3β3γ2; 10 μM test compound)	GABAA α2β3γ2 normalized percent current (human GABAA α2β3γ2; 10 μM test compound)	GABAA α1β3γ2 normalized percent current (human GABAA α1β3γ2; 10 μM test compound)	reversal of neuropathic pain induced by spinal nerve ligation [2]	50% paw withdrawal threshold [2, 4]	reversal of acute pain induced by capsaicin injection [3]	other results
N#CC(C(=S)Nc1ccc(C#N)cc1)=C(O)C1CC1 [Example 7, 2-Cyano-N-(4-cyano-phenyl)-3-cyclopropyl-3-hydroxy-thioacrylamide]	9.6 µM	–	–	–	–	–	–	–
N#CC(C(=S)Nc1ccc([S+]([O-])C(F)(F)F)cc1)=C(O)C1CC1 (stereo not shown) [Example 8, 2-Cyano-3-cyclopropyl-3-hydroxy-N-(4-trifluoromethanesulfinyl-phenyl)-thioacrylamide]	10.3 µM	–	–	–	–	–	–	–
N#CC(C(=S)Nc1ccc([N+](=O)[O-])cc1)=C(O)C1CC1 [Example 4, 2-Cyano-3-cyclopropyl-3-hydroxy-N-(4-nitro-phenyl)-thioacrylamide]	8.7 µM	–	–	–	can reverse neuropathic pain	~50 g	–	50% paw withdrawal threshold [2, 7]: 30 g
Cc1cc(NC(=S)C(C#N)=C(O)C2CC2)ccc1C(F)(F)F [Example 1, 2-Cyano-3-cyclopropyl-3-hydroxy-N-(3-methyl-4-trifluormethyl-phenyl)-thioacrylamide]	5.3 µM	697%	614%	792%	can reverse neuropathic pain	–	can reverse acute pain	50% paw withdrawal threshold [2, 10]: 30 g; 50% paw withdrawal threshold [3, 8]: 30 g; 50% paw withdrawal threshold [3, 9]: ~50 g
N#CC(C(=S)Nc1ccc(SC(F)(F)F)cc1)=C(O)C1CC1 [Example 5, 2-Cyano-3-cyclopropyl-3-hydroxy-N-(4-trifluoromethylsulfanyl-phenyl)-thioacrylamide]	7.7 µM	315%	453%	707%	–	–	–	–

The remaining molecules from weak to strong by IC50 [1], led by results:

IC50 [1]	SMILES	GABAA α3β3γ2 normalized percent current (human GABAA α3β3γ2; 10 μM test compound)	GABAA α2β3γ2 normalized percent current (human GABAA α2β3γ2; 10 μM test compound)	GABAA α1β3γ2 normalized percent current (human GABAA α1β3γ2; 10 μM test compound)	reversal of neuropathic pain induced by spinal nerve ligation [2]	50% paw withdrawal threshold [2, 4]	reversal of acute pain induced by capsaicin injection [3]	other results
8.3 µM	Cc1cc(NC(=S)C(C#N)=C(O)C2CC2)ccc1F [Example 2, 2-Cyano-3-cyclopropyl-N-(4-fluoro-3-methyl-phenyl)-3-hydroxy-thioacrylamide]	–	–	–	can reverse neuropathic pain	–	can reverse acute pain	GABAA α3β3γ2 normalized percent current (human GABAA α3β3γ2; 50 μM test compound): 835%; GABAA α2β3γ2 normalized percent current (human GABAA α2β3γ2; 50 μM test compound): 470%; GABAA α1β3γ2 normalized percent current (human GABAA α1β3γ2; 50 μM test compound): 734%; 50% paw withdrawal threshold ([2]; Experiment 1, 10 mg/kg oral gavage 5 days DPO7-DPO12, at DPO21): 40 g; 50% paw withdrawal threshold [2, 10]: 40 g; 50% paw withdrawal threshold [3, 5]: ~40 g; 50% paw withdrawal threshold [3, 6]: ~33 g
7.9 µM	Cc1cc(NC(=S)C(C#N)=C(O)C2CC2)ccc1C#N [Example 6, 2-Cyano-N-(4-cyano-3-methyl-phenyl)-3-cyclopropyl-3-hydroxy-thioacrylamide]	357%	286%	338%	can reverse neuropathic pain	~40 g	can reverse acute pain	50% paw withdrawal threshold [3, 5]: 35 g; 50% paw withdrawal threshold [3, 6]: 25 g
6 µM	Cc1cc(NC(=S)C(C#N)=C(O)C2CC2)ccc1[N+](=O)[O-] [Example 3, 2-Cyano-3-cyclopropyl-3-hydroxy-N-(3-methyl-4-nitro-phenyl)-thioacrylamide]	–	–	–	can reverse neuropathic pain	about 35 g	can reverse acute pain	GABAA α3β3γ2 normalized percent current (human GABAA α3β3γ2; 50 μM test compound): 469%; GABAA α2β3γ2 normalized percent current (human GABAA α2β3γ2; 50 μM test compound): 380%; GABAA α1β3γ2 normalized percent current (human GABAA α1β3γ2; 50 μM test compound): 424%; 50% paw withdrawal threshold [2, 7]: 23 to 25 g; 50% paw withdrawal threshold [3, 8]: 40 g; 50% paw withdrawal threshold [3, 9]: ~50 g
5 µM	N#CC(C(=S)Nc1ccc(S(=O)(=O)C(F)(F)F)cc1)=C(O)C1CC1 [Example 9, 2-Cyano-3-cycopropyl-3-hydroxy-N-(4-trifluoromethanesulfonyl-phenyl)-thioacrylamide]	328%	259%	286%	–	–	–	–
